SMILES strings stand for the structures. ≈ marks a conversion by molar mass, not a printed value. Calls of active or inactive are those of the source. The rule behind the calls is not given here.

The MIC is the least concentration at which growth counts as inhibited.

Data set [1] deals with Staphylococcus epidermidis. The experiment in a line: Inhibition of biofilm formation in Staphylococcus epidermidis ATCC 35984 at 1 to 8 ug/ml measured after 24 hrs by crystal violet staining based assay. Type of data set: functional, organism-based.
In data set [2] the test system is Staphylococcus epidermidis. The experiment in a line: Inhibition of biofilm formation in Staphylococcus epidermidis ATCC 12228 at 1 to 8 ug/ml measured after 24 hrs by crystal violet staining based assay. It counts as functional, organism-based.
In data set [3] the test system is Pseudomonas aeruginosa. In words: Antibacterial activity against Pseudomonas aeruginosa ATCC 15442 assessed as bacterial growth inhibition measured after 18 hrs by CLSI protocol based two-fold serial microdilution method. It counts as functional, organism-based. On the technique in general: In broth dilution the organism is exposed to a series of concentrations in liquid medium.

Data set [4] concerns Pseudomonas aeruginosa. The experiment in a line: Antibacterial activity against Pseudomonas aeruginosa ATCC 27853 assessed as bacterial growth inhibition measured after 18 hrs by CLSI protocol based two-fold serial microdilution method. It counts as functional, organism-based.
The test system of data set [5] is Escherichia coli. The experiment in a line: Antibacterial activity against Escherichia coli NCTC 8196 assessed as bacterial growth inhibition measured after 18 hrs by CLSI protocol based two-fold serial microdilution method. Type of data set: functional, organism-based.
Data set [6] has as its system Escherichia coli. The experiment in a line: Antibacterial activity against Escherichia coli ATCC 25922 assessed as bacterial growth inhibition measured after 18 hrs by CLSI protocol based two-fold serial microdilution method. It counts as functional, organism-based.
In data set [7] the test system is Staphylococcus epidermidis. The experiment in a line: Antibacterial activity against methicillin-resistant Staphylococcus epidermidis isolate 574 assessed as bacterial growth inhibition measured after 18 hrs by CLSI protocol based two-fold serial microdilution method. The conditions noted are these: isolate 574, 18 h. It counts as functional.
Data set [8] deals with Staphylococcus epidermidis. In words: Antibacterial activity against methicillin-resistant Staphylococcus epidermidis isolate 602 assessed as bacterial growth inhibition measured after 18 hrs by CLSI protocol based two-fold serial microdilution method. It counts as functional. To be noted: isolate 602, 18 h.
The test system of data set [9] is Staphylococcus epidermidis. In words: Antibacterial activity against methicillin-resistant Staphylococcus epidermidis isolate 603 assessed as bacterial growth inhibition measured after 18 hrs by CLSI protocol based two-fold serial microdilution method. Type of data set: functional. To be noted: isolate 603, 18 h.
Data set [10] relates to Staphylococcus epidermidis. The experiment in a line: Antibacterial activity against methicillin-resistant Staphylococcus epidermidis isolate 609 assessed as bacterial growth inhibition measured after 18 hrs by CLSI protocol based two-fold serial microdilution method. To be noted: isolate 609, 18 h. It counts as functional.
The test system of data set [11] is Staphylococcus epidermidis. The experiment in a line: Antibacterial activity against methicillin-resistant Staphylococcus epidermidis isolate 610 assessed as bacterial growth inhibition measured after 18 hrs by CLSI protocol based two-fold serial microdilution method. Type of data set: functional. To be noted: isolate 610, 18 h.
The test system of data set [12] is Staphylococcus epidermidis. In words: Antibacterial activity against methicillin-resistant Staphylococcus epidermidis isolate 654 assessed as bacterial growth inhibition measured after 18 hrs by CLSI protocol based two-fold serial microdilution method. It counts as functional. The conditions noted are these: isolate 654, 18 h.
The subject of data set [13] is Staphylococcus epidermidis. The experiment in a line: Antibacterial activity against methicillin-resistant Staphylococcus epidermidis isolate 660 assessed as bacterial growth inhibition measured after 18 hrs by CLSI protocol based two-fold serial microdilution method. It counts as functional. The conditions noted are these: isolate 660, 18 h.
The test system of data set [14] is Staphylococcus aureus. The experiment in a line: Antibacterial activity against methicillin-resistant Staphylococcus aureus isolate 583 assessed as bacterial growth inhibition measured after 18 hrs by CLSI protocol based two-fold serial microdilution method. It counts as functional. To be noted: isolate 583, 18 h.
Data set [15] has as its system Staphylococcus aureus. The experiment in a line: Antibacterial activity against methicillin-resistant Staphylococcus aureus isolate 584 assessed as bacterial growth inhibition measured after 18 hrs by CLSI protocol based two-fold serial microdilution method. It counts as functional. The conditions noted are these: isolate 584, 18 h.
Data set [16] relates to Staphylococcus aureus. In words: Antibacterial activity against methicillin-resistant Staphylococcus aureus isolate 612 assessed as bacterial growth inhibition measured after 18 hrs by CLSI protocol based two-fold serial microdilution method. The conditions noted are these: isolate 612, 18 h. It counts as functional.
Data set [17] has as its system Staphylococcus aureus. The experiment in a line: Antibacterial activity against methicillin-resistant Staphylococcus aureus isolate 620 assessed as bacterial growth inhibition measured after 18 hrs by CLSI protocol based two-fold serial microdilution method. It counts as functional. The conditions noted are these: isolate 620, 18 h.
Data set [18] deals with Staphylococcus aureus. In words: Antibacterial activity against methicillin-resistant Staphylococcus aureus isolate 621 assessed as bacterial growth inhibition measured after 18 hrs by CLSI protocol based two-fold serial microdilution method. It counts as functional. The conditions noted are these: isolate 621, 18 h.
The subject of data set [19] is Staphylococcus aureus. The experiment in a line: Antibacterial activity against methicillin-resistant Staphylococcus aureus isolate 750 assessed as bacterial growth inhibition measured after 18 hrs by CLSI protocol based two-fold serial microdilution method. Type of data set: functional. To be noted: isolate 750, 18 h.
Data set [20] deals with Staphylococcus aureus. In words: Antibacterial activity against methicillin-resistant Staphylococcus aureus isolate 770 assessed as bacterial growth inhibition measured after 18 hrs by CLSI protocol based two-fold serial microdilution method. Type of data set: functional. To be noted: isolate 770, 18 h.
The nature of data set [21]: Genotoxicity in rec negative Bacillus subtilis M45 assessed as diameter of inhibition zone at 256 ug measured after 24 hrs by rec-assay. Type of data set: toxicity. To be noted: in vivo.
Data set [22] can be described thus: Genotoxicity in rec-positive Bacillus subtilis H17 assessed as diameter of inhibition zone at 256 ug measured after 24 hrs by rec-assay. Type of data set: toxicity. To be noted: in vivo.

For `O=C(O)c1cn(C2CC2)c2cc(N3CCNCC3)c(F)cc2c1=O`, the inhibition entry in [1] and in [2] was “Active” each time.
For the compound `C#CCN[C@@H]1C=C[C@]2(O[C@H]([C@@H](CC)C(=O)[C@@H](C)[C@@H](O)[C@H](C)[C@@H]3O[C@@H]([C@@H](CC)C(=O)O)CC[C@@H]3C)[C@@H](C)C[C@H]2C)O[C@@]12CC[C@@](C)([C@H]1CC[C@](O)(CC)[C@H](C)O1)O2`, the result in data set [3], in data set [4], in data set [5] and in data set [6] was inactive. Also, the MIC in data set [7] amounted to 1.27 µM (≈ 1 µg/mL); in data set [8], 1.27 µM (≈ 1 µg/mL); in data set [9], 1.27 µM (≈ 1 µg/mL); in data set [10], 1.27 µM (≈ 1 µg/mL); in data set [11] it was 2.54 µM (≈ 2 µg/mL); in [12] it was 81.2 µM (≈ 64 µg/mL). Moreover, the minimal inhibitory concentration (MIC) was determined as 40.6 µM (≈ 32 µg/mL) in data set [13]; 81.2 µM (≈ 64 µg/mL) in [14]; 81.2 µM (≈ 64 µg/mL) in data set [15]; 1.27 µM (≈ 1 µg/mL) in data set [16]; 2.54 µM (≈ 2 µg/mL) in [17]; 1.27 µM (≈ 1 µg/mL) in data set [18]. For the same compound, the MIC in [19] was found to be 1.27 µM (≈ 1 µg/mL); in data set [20] it was 2.54 µM (≈ 2 µg/mL). The inhibition entry in data set [1] and in data set [2] was “Active” throughout. The “diameter of the inhibition zone (DIZ)” value turned out to be 34 mm in data set [21] and 30 mm in data set [22].
For the compound `C#CCOC(=O)[C@H](CC)[C@H]1CC[C@H](C)[C@H]([C@@H](C)[C@H](O)[C@H](C)C(=O)[C@H](CC)[C@H]2O[C@]3(C=CC(=O)[C@]4(CC[C@@](C)([C@H]5CC[C@](O)(CC)[C@H](C)O5)O4)O3)[C@H](C)C[C@@H]2C)O1`, the result in data set [3], in [4], in [5] and in data set [6] was inactive.
With `O=[N+]([O-])c1cc[n+]([O-])c2ccccc12` [4-NITROQUINOLINE-1-OXIDE], the entries for the “diameter of the inhibition zone (DIZ)” value in data set [21] and in [22] were 34 mm and 22 mm, respectively.
Turning to `CC[C@@H](C(=O)[C@@H](C)[C@@H](O)[C@H](C)[C@@H]1O[C@@H]([C@@H](CC)C(=O)OCC(F)(F)F)CC[C@@H]1C)[C@H]1O[C@]2(C=C[C@@H](O)[C@]3(CC[C@@](C)([C@H]4CC[C@](O)(CC)[C@H](C)O4)O3)O2)[C@H](C)C[C@@H]1C`, the outcome in data set [3], in data set [4], in [5] and in data set [6] was inactive.
Take `CC[C@@H](C(=O)[C@@H](C)[C@@H](O)[C@H](C)[C@@H]1O[C@@H]([C@@H](CC)C(=O)OCC(F)(F)F)CC[C@@H]1C)[C@H]1O[C@]2(C=CC(=O)[C@]3(CC[C@@](C)([C@H]4CC[C@](O)(CC)[C@H](C)O4)O3)O2)[C@H](C)C[C@@H]1C`: the result in data set [3], in data set [4], in data set [5] and in data set [6] was inactive.
Take `CC[C@@H](C(=O)[C@@H](C)[C@@H](O)[C@H](C)[C@@H]1O[C@@H]([C@@H](CC)C(=O)NCC(F)(F)F)CC[C@@H]1C)[C@H]1O[C@]2(C=CC(=O)[C@]3(CC[C@@](C)([C@H]4CC[C@](O)(CC)[C@H](C)O4)O3)O2)[C@H](C)C[C@@H]1C`: the outcome in [3], in [4], in [5] and in data set [6] was inactive.
With `CC[C@@H](C(=O)[C@@H](C)[C@@H](O)[C@H](C)[C@@H]1O[C@@H]([C@@H](CC)C(=O)NCCc2ccc(F)cc2)CC[C@@H]1C)[C@H]1O[C@]2(C=CC(=O)[C@]3(CC[C@@](C)([C@H]4CC[C@](O)(CC)[C@H](C)O4)O3)O2)[C@H](C)C[C@@H]1C`, the result in [3], in data set [4], in [5] and in data set [6] was inactive.
With `C#CCNC(=O)[C@H](CC)[C@H]1CC[C@H](C)[C@H]([C@@H](C)[C@H](O)[C@H](C)C(=O)[C@H](CC)[C@H]2O[C@]3(C=C[C@@H](O)[C@]4(CC[C@@](C)([C@H]5CC[C@](O)(CC)[C@H](C)O5)O4)O3)[C@H](C)C[C@@H]2C)O1`, the outcome in [3], in data set [4], in data set [5] and in data set [6] was inactive.
For the compound `CC[C@@H](C(=O)[C@@H](C)[C@@H](O)[C@H](C)[C@@H]1O[C@@H]([C@@H](CC)C(=O)O)CC[C@@H]1C)[C@H]1O[C@]2(C=C[C@@H](O)[C@]3(CC[C@@](C)([C@H]4CC[C@](O)(CC)[C@H](C)O4)O3)O2)[C@H](C)C[C@@H]1C` [SALINOMYCIN], the result in [3], in data set [4], in [5] and in data set [6] was inactive. Moreover, the minimal inhibitory concentration (MIC) in data set [7] stood at 1.33 µM (≈ 0.999 µg/mL); in data set [8], 1.33 µM (≈ 0.999 µg/mL); in data set [9], 2.66 µM (≈ 2 µg/mL); in [10] it was 1.33 µM (≈ 0.999 µg/mL); in data set [11], 1.33 µM (≈ 0.999 µg/mL); in data set [12], 5.33 µM (≈ 4 µg/mL). Besides, the minimum inhibitory concentration (MIC) in data set [13] was found to be 5.33 µM (≈ 4 µg/mL); in [14], 2.66 µM (≈ 2 µg/mL); in data set [15], 2.66 µM (≈ 2 µg/mL); in [16], 1.33 µM (≈ 0.999 µg/mL); in data set [17] it was 1.33 µM (≈ 0.999 µg/mL); in data set [18], 2.66 µM (≈ 2 µg/mL). For the same compound, the results for the MIC in [19] and in data set [20] were 1.33 µM (≈ 0.999 µg/mL) and 2.66 µM (≈ 2 µg/mL), respectively. Further, the “diameter of the inhibition zone (DIZ)” value in data set [21] is reported as 34 mm; in [22], 32 mm.
In the case of `C#CCOC(=O)[C@H](CC)[C@H]1CC[C@H](C)[C@H]([C@@H](C)[C@H](O)[C@H](C)C(=O)[C@H](CC)[C@H]2O[C@]3(C=C[C@@H](O)[C@]4(CC[C@@](C)([C@H]5CC[C@](O)(CC)[C@H](C)O5)O4)O3)[C@H](C)C[C@@H]2C)O1`, the result in [3], in data set [4], in [5] and in data set [6] was inactive.
With `C#CCNC(=O)[C@H](CC)[C@H]1CC[C@H](C)[C@H]([C@@H](C)[C@H](O)[C@H](C)C(=O)[C@H](CC)[C@H]2O[C@]3(C=CC(=O)[C@]4(CC[C@@](C)([C@H]5CC[C@](O)(CC)[C@H](C)O5)O4)O3)[C@H](C)C[C@@H]2C)O1`, the outcome in data set [3], in data set [4], in data set [5] and in data set [6] was inactive.
Regarding `CC[C@@H](C(=O)[C@@H](C)[C@@H](O)[C@H](C)[C@@H]1O[C@@H]([C@@H](CC)C(=O)NCC(F)(F)F)CC[C@@H]1C)[C@H]1O[C@]2(C=C[C@@H](O)[C@]3(CC[C@@](C)([C@H]4CC[C@](O)(CC)[C@H](C)O4)O3)O2)[C@H](C)C[C@@H]1C`, the result in data set [3], in data set [4], in data set [5] and in data set [6] was inactive.

Source of the values: ChEMBL document CHEMBL4627327, “Antibacterial activity of singly and doubly modified salinomycin derivatives” (Bioorg Med Chem Lett, 2020).
